Data published in patent US20240269106A1, “SMALL MOLECULE MODULATOR TARGETING A RARE HISTONE MODIFICATION REGULATING ADIPOGENESIS AND PHARMACEUTICAL FORMULATION THEREOF” (COUNCIL OF SCIENTIFIC AND INDUSTRIAL RESEARCH AN INDIAN …, priority 2021, published 2024).

Tests used:
Assay type in all cases: in vivo
[1] = system: C57BL/6J mice maintained on high fat diet; experiment: Standardization of dosage and administration mode, intraperitoneal, high fat diet mice
Protocol: Male C57BL/6J mice (8 weeks old) bred in house were obtained and acclimatized for 1 week prior to experiments. Mice were maintained on a 12-hour light/dark cycle at 22+/−3° C. and a relative humidity of 55% and given ad libitum access to food and water. The age-matched C57BL/6J mice were maintained on a standard laboratory chow diet or high fat diet (60 kcal % fat) and water. Two groups were intraperitoneally injected with compound x at two different doses (20 mg/Kg bw and 50 mg/kg bw) twice every week. A third group was injected with equivalent volume of DMSO (for 50 mg/kg bw) as vehicle control. Body weight and food intake was measured twice every week.

[2] = system: genetically obese db/db mice; experiment: Liver and adipose tissue of genetically obese db/db mice
Source text: After the treatment of the mice with compound of Formula I for one month, the mice were sacrificed and their liver and epididymal fat pads were harvested. The organs were individually weighed and then processed for morphology study by hematoxylin and eosin staining.
Average weights of liver (i) and adipose tissue (ii) of the mice of the three different groups are represented by bar graphs (FIG. 11); n=4 in each group:one-way ANOVA with Dunnett's multiple comparison; * P<0.05, ** P<0.01, *** P<0.001, ns: not significant. Representative images of morphology of adipose tissue (iii) and liver (iv) from the mice of the three groups, as studied by hematoxylin and eosin staining.

[3] = Single dose toxicity study for maximum tolerated dose
Protocol: The single dose toxicity study on compound X was conducted in accordance with Good Laboratory Practice Principles as published by the OECD in 1998, in accordance with the Drugs and Cosmetics Rule (New Drugs and Clinical trials, 2019/DCGI). Compound X (formulated in vehicle i.e. 0.5% sodium salt of carboxymethyl cellulose) was administered to Sprague Dawley rats once by oral route on the day of scheduled treatment. The three treatment groups were 250 mg, 500 mg, and 1000 mg/kg body weight, while vehicle control was administered to control group. The rat equivalent doses were calculated from the dosage used in mice experiments following FDA guidelines for drug administration. The doses finally administered were 10, 20 and 40 times the corresponding mice equivalent dose. Food, but not water, was removed thus letting the animals fast over-night prior to dosing. […] Animals were subsequently observed once daily for any signs of toxicity, mortality, or any other observations including conditions of skin, hair coat, eyes, mucous membrane, movement, activity, tremors, convulsions, salivation, diarrhea, posture, piloerection and lethargy. Food intake, water intake and body weight of animals was recorded weekly. Terminal sacrifice of surviving animals was performed after 14 days using CO2 euthanasia technique following which animals were necropsied. Animals were fasted over night before necropsy. Gross observations were recorded.

COc1ccc(C(=O)C2=C3OC(C)(C)[C@@H](CC=C(C)C)C[C@@]34C[C@@H](CC=C(C)C)C(C)(C)[C@@](CC=C(C)C)(C2=O)C4=O)cc1OC [Compound X]
weight gain ([1]; 20 mg/kg bw intraperitoneal twice every week): not sufficient for arresting weight gain | body weight ([1]; 50 mg/kg bw intraperitoneal twice every week, DMSO vehicle gave almost similar arrest): did have an attenuating effect | liver and epididymal fat pad weights ([2]; between db/db vehicle and db+/-): intermediate weights | symptoms of liver steatosis and adipose tissue hypertrophy ([2]; one month treatment): significantly reduced | gross morphological changes in organs ([3]; 250, 500, 1000 mg/kg single oral dose, necropsy): no gross morphological changes in any organ | Average food intake, Final ([3]; Female, 250 mg/Kg bw): 16.65 gram/day/animal | Average food intake, Initial ([3]; Female, 250 mg/Kg bw): 20 gram/day/animal | Average food intake, Middle ([3]; Female, 250 mg/Kg bw): 16.32 gram/day/animal | Average water intake, Final ([3]; Female, 250 mg/Kg bw): 16.65 ml/day/animal | Average water intake, Initial ([3]; Female, 250 mg/Kg bw): 20 ml/day/animal | Average water intake, Middle ([3]; Female, 250 mg/Kg bw): 16.32 ml/day/animal | Body weight, Final ([3]; Female, 250 mg/Kg bw): 176.35 gram | Body weight, Initial ([3]; Female, 250 mg/Kg bw): 151.99 gram | Body weight, Mid ([3]; Female, 250 mg/Kg bw): 174.54 gram | Average food intake, Final ([3]; Female, 500 mg/Kg bw): 17.09 gram/day/animal | Average food intake, Initial ([3]; Female, 500 mg/Kg bw): 18.22 gram/day/animal | Average food intake, Middle ([3]; Female, 500 mg/Kg bw): 18.13 gram/day/animal | Average water intake, Final ([3]; Female, 500 mg/Kg bw): 17.09 ml/day/animal | Average water intake, Initial ([3]; Female, 500 mg/Kg bw): 18.22 ml/day/animal | Average water intake, Middle ([3]; Female, 500 mg/Kg bw): 18.13 ml/day/animal | Body weight, Final ([3]; Female, 500 mg/Kg bw): 175.8 gram | Body weight, Initial ([3]; Female, 500 mg/Kg bw): 153.32 gram | Body weight, Mid ([3]; Female, 500 mg/Kg bw): 176.55 gram | Average food intake, Final ([3]; Female, 1000 mg/Kg bw): 16.97 gram/day/animal | Average food intake, Initial ([3]; Female, 1000 mg/Kg bw): 18.17 gram/day/animal | Average food intake, Middle ([3]; Female, 1000 mg/Kg bw): 17.82 gram/day/animal | Average water intake, Final ([3]; Female, 1000 mg/Kg bw): 16.97 ml/day/animal | Average water intake, Initial ([3]; Female, 1000 mg/Kg bw): 18.17 ml/day/animal | Average water intake, Middle ([3]; Female, 1000 mg/Kg bw): 17.82 ml/day/animal | Body weight, Final ([3]; Female, 1000 mg/Kg bw): 179.52 gram | Body weight, Initial ([3]; Female, 1000 mg/Kg bw): 153.81 gram | Body weight, Mid ([3]; Female, 1000 mg/Kg bw): 178.58 gram | Average food intake, Final ([3]; Male, 250 mg/Kg bw): 22.62 gram/day/animal | Average food intake, Initial ([3]; Male, 250 mg/Kg bw): 20.03 gram/day/animal | Average food intake, Middle ([3]; Male, 250 mg/Kg bw): 20.79 gram/day/animal | Average water intake, Final ([3]; Male, 250 mg/Kg bw): 22.62 ml/day/animal | Average water intake, Initial ([3]; Male, 250 mg/Kg bw): 20.03 ml/day/animal | Average water intake, Middle ([3]; Male, 250 mg/Kg bw): 20.79 ml/day/animal | Body weight, Final ([3]; Male, 250 mg/Kg bw): 244.21 gram | Body weight, Initial ([3]; Male, 250 mg/Kg bw): 171.94 gram | Body weight, Mid ([3]; Male, 250 mg/Kg bw): 216.62 gram | Average food intake, Final ([3]; Male, 500 mg/Kg bw): 23.29 gram/day/animal | Average food intake, Initial ([3]; Male, 500 mg/Kg bw): 20.99 gram/day/animal | Average food intake, Middle ([3]; Male, 500 mg/Kg bw): 21.14 gram/day/animal | Average water intake, Final ([3]; Male, 500 mg/Kg bw): 23.29 ml/day/animal | Average water intake, Initial ([3]; Male, 500 mg/Kg bw): 20.99 ml/day/animal | Average water intake, Middle ([3]; Male, 500 mg/Kg bw): 21.14 ml/day/animal | Body weight, Final ([3]; Male, 500 mg/Kg bw): 243.14 gram | Body weight, Initial ([3]; Male, 500 mg/Kg bw): 176.3 gram | Body weight, Mid ([3]; Male, 500 mg/Kg bw): 229.75 gram | Average food intake, Final ([3]; Male, 1000 mg/Kg bw): 19.95 gram/day/animal | Average food intake, Initial ([3]; Male, 1000 mg/Kg bw): 20.76 gram/day/animal | Average food intake, Middle ([3]; Male, 1000 mg/Kg bw): 20.74 gram/day/animal | Average water intake, Final ([3]; Male, 1000 mg/Kg bw): 19.95 ml/day/animal | Average water intake, Initial ([3]; Male, 1000 mg/Kg bw): 20.76 ml/day/animal | Average water intake, Middle ([3]; Male, 1000 mg/Kg bw): 20.74 ml/day/animal | Body weight, Final ([3]; Male, 1000 mg/Kg bw): 226.19 gram | Body weight, Initial ([3]; Male, 1000 mg/Kg bw): 176.24 gram | Body weight, Mid ([3]; Male, 1000 mg/Kg bw): 217.65 gram | effect on food and water consumption ([3]; both gender, all three doses vs vehicle control): no significant treatment related effect
